Assay results reported in patent publication US20250312334A1, “COMPOSITION CONTAINING ARIPIPRAZOLE AS ACTIVE INGREDIENT FOR ENHANCING ANTICANCER EFFECT OF RAF INHIBITOR” (KOREA INSTITUTE OF RADIOLOGICAL & MEDICAL SCIENCES, priority 2022, published 2025).

System: COLO 205 cells
Assay: Western blot of NOXA and PUMA protein expression after aripiprazole treatment
Assay type: cell-based
Conditions: 8 hours after treatment, Western blot (FIG. 1)
Method: To identify an effect of aripiprazole on the expression of NOXA and PUMA proteins in cancer cells, COLO 205 cells were treated with aripiprazole. Eight hours later, proteins were extracted from cells after washing with PBS, and a level of NOXA and PUMA expression was checked via Western blot.

Compound: O=C1CCc2ccc(OCCCCN3CCN(c4cccc(Cl)c4Cl)CC3)cc2N1 [aripiprazole]
- expression of NOXA protein: increased
- expression of PUMA protein: increased
